The subject of one assay is MDA-MB-231. Kind of assay: MTT screening assay, MDA-MB-231. It is filed as cell-based. The following applies: Homo sapiens, 72 h incubation. The text has this:
The ability of newly synthesized indole phytoalexins to suppress cell proliferation was screened in vitro on eight cancer cell lines including human colorectal carcinoma (Caco-2 and HCT116), human cervical cancer (HeLa), human breast adenocarcinoma (MCF-7, MDA-MB-231), human alveolar adenocarcinoma (A549) and human leukemic T cell lymphoma (Jurkat), and two non-cancer cell lines (MCF-10A, Cos-7).
The cell lines used for this study were Caco-2 (human colorectal adenocarcinoma cell line, American Type Culture Collection, Manassas, VA, USA (ATCC)), HCT116 (human colorectal carcinoma cells European Collection of Authenticated Cell Cultures, Salisbury, UK (ECACC)), HeLa (human cervical tumor cells, ECACC), MCF-7 (human breast tumor cells, ECACC), MDA-MB-231 (human breast tumor cells, ATCC), A549 (human lung carcinoma cells, ATCC), BLM (human melanoma lung metastases, a gift from prof. K. Smetana, Institute of Anatomy, Charles University in Prague), Jurkat (human leukemia cell line, ECACC), Cos-7 (immortalized monkey kidney fibroblasts, ATCC) and MCF-10A (human mammary epithelial cells, ATCC). Caco-2, MCF-7, BLM, Cos-7 and A549 cells were cultured in Dulbecco’s Modified Eagle’s Medium (DMEM) with high glucose and sodium pyruvate (GE Healthcare, Piscataway, NJ, USA); HCT116 lines, HeLa, MDA-MB-231 and Jurkat were cultured in RPMI-1640 medium; and MCF10A cells were cultured in high glucose DMEM/F12 (Dulbecco’s Modified Eagle’s Medium F12). The media were enriched with 10% fetal bovine serum (FBS) and a 1% solution of a mixture of antibiotics and antimycotics 1× HyClone™ (GE Healthcare, Chicago, IL, USA). DMEM/F12 medium was supplemented with epidermal growth factor (EGF) (20 ng/mL final), hydrocortisone (0.5 μg/mL final) and insulin (10 μg/mL final) (Sigma-Aldrich Chemie, Steinheim, Germany). The cells were placed in an incubator at 37 °C with humidified air containing 5% CO2.
(§1) The MTT assay is a colorimetric method used to quantify the metabolic activity of cells. MTT (3-(4,5-di-methylthiazol-2-yl)2,5-diphenyltetrazolium bromide) (Sigma-Aldrich Chemie, Steinheim, Germany) is reduced by oxidoreductases in the cytosol of cells to light-absorbing formazan, the presence of which can be measured spectrophotometrically and determines the half-maximal inhibitory concentration (IC50). A549 cells were seeded in […] culture plates at a density of 5 × 10^3 per well. […]
We also incubated the cells with chloroquine at concentrations of 5–20 µM, which was added 1 h before the addition of the test substance, and cisplatin at concentrations of 3–10 µM. […] After 24 h, the absorbance was measured at a wavelength of 540 nm using an automated Cytation™ 3 Cell Imaging Multi-Mode Reader (Biotek, Winooski, VT, USA). […]
Background: Tetrazolium dyes change colour on reduction, which living cells bring about.

Another assay deals with Beclin-1. In words: Western blot, Beclin-1. It is filed as cell-based, human. The following applies: A549, all time periods, most significantly after 24 h. The text has this: Beclin-1 plays a key role in the autophagy process, which is activated in cells during periods of stress. It ensures the recruitment of autophagosomal proteins to the pre-autophagosomal structure (PAS) and is part of a complex that is essential for the induction of autophagy (VSP34 complex). It also interacts with proteins from the Bcl-2 family, by which it can be inactivated or cleaved by caspases. This is considered a crosstalk between autophagy and apoptosis. […] There is no mention in the literature focusing on Beclin-1 (and even autophagy) and indole phytoalexins. However, another phytoalexin, resveratrol, has been described to stimulate autophagy in oral cancer cells. […] Later, Fan et al. confirmed the ability of resveratrol to induce autophagy associated with upregulation of Beclin-1 also in lung cancer A549 cells.
A549 cells were seeded on Petri dishes (55 cm^2) at a density of 1 × 10^6 and allowed to culture in the medium. After 24 h, the test substance was added, and the cells were incubated for 24, 48 and 72 h. […] After lysis, the cells were sonicated, and the protein concentration in the samples was quantified using the Pierce® BCA Protein Assay Kit (Thermo Scientific, Rockford, IL, USA) and measured by an automated Cytation™ 3 Cell Imaging Multi-Mode Reader (Biotek) at a wavelength of 570 nm. […]

In the next assay the test system is A549 cells. Kind of assay: MTT assay with chloroquine combination. The following applies: 49 20 μM + CQ 5, 10 and 20 μM, 72 h. It is filed as cell-based, human. As to the method: as §1
We also incubated the cells with chloroquine at concentrations of 5–20 µM, which was added 1 h before the addition of the test substance, and cisplatin at concentrations of 3–10 µM. Cisplatin was added 24 h after the addition of 49. After 72 h of incubation, 10 µL of MTT (5 mg/mL) was added to each well. After 4 h, formazan crystals formed in the wells, which were dissolved in 100 uL of 10% SDS (sodium dodecyl sulfate). After 24 h, the absorbance was measured at a wavelength of 540 nm using an automated Cytation™ 3 Cell Imaging Multi-Mode Reader (Biotek, Winooski, VT, USA). These experiments were performed in three independent replicates.

SMILES strings stand for the structures.

As usually defined, the IC50 is the midpoint of a concentration-inhibition curve. The low end stands for greater potency in that assay, the high end for weaker potency in that assay. Turning to `CC(C)(C)OC(=O)n1cc(CNC(=O)Nc2ccc(NC(=O)NCc3cn(C(=O)OC(C)(C)C)c4ccccc34)cc2)c2ccccc21` [Compound 49, N,N′-(1,4-phenylene)bis{N′-[1-(tert-butoxycarbonyl)indol-3-yl]methyl (urea)}], in the assay with MDA-MB-231, the IC50 is > 100 µM. In the assay with Beclin-1, the Beclin-1 expression entry is reported as “significantly upregulated”. Further, the “effect of chloroquine co-treatment on the antiproliferative effect of compound 49 (A549 cell survival)” value in the assay with A549 cells is “significantly potentiated”.
